# From US20160082082A1, “USE OF THERAPEUTIC PEPTIDES FOR THE TREATMENT AND PREVENTION OF CANCER” (ARIZONA CANCER THERAPEUTICS L.L.C., priority 2008, published 2016)
# “And” between values parts separate entries of the source, which are not always exact repeats. Equal entries are not always repeated. Where no end group is shown, it is not given here.
# Columns and labels:
# [1] = system: BT-20 breast cancer cells; assay: Cellular uptake of labelled peptide (fluorescence microscopy); assay type: cell-based, human; details: cells pulsed in vitro
# Procedure: FIGS. 1A-1F. […] FIG. 1A) Human MUC1's cytoplasmic amino acid sequence (MUC1CT; SEQ ID NO: 15), which includes an EGFR/src phosphorylation site (underline; SEQ ID NO: 15, residues 46-49) and β-catenin binding site (double underline; SEQ ID NO: 15, residues 50-59). […] The cells were treated with EGF (30′ EGF, 10 ng/ml) or without (-S, no serum) and protein lysates were generated and separated on an SDS-PAGE. The lysates were immunoblotted (IB) for EGFR (1005) and β-actin (AC-15) FIG. 1D-F MDA-MB-468 cells were treated with EGF (10 ng/ml) and either (FIG. 1D) hPMIP (10 μM), (FIG. 1E) PTD4 (10 μM) or (FIG. 1F) PBS overnight. The cells were fixed, probed for MUC1 (Texas Red) and β-catenin (FITC) and examined on a confocal microscope (400×). Co-localization (arrows) analysis was performed using Image Pro Plus and is designated with white pixels.
# BT20 cells were treated for 2 hours with 200 μM hPMIP tagged with FITC and fixed in 4% Paraformaldhyde/PBS. Fixed cells were washed 3 times with 0.02% NaN3/PBS and incubated with Slowfade Gold antifade reagent with DAPI (Invitrogen). Cells were visualized with a fluorescence DMLB Leica compound microscope. […]
# [2] = system: MMTV-pyV mT induced mammary gland tumors; assay: MMTV-pyV mT transgenic mouse spontaneous breast cancer; assay type: in vivo, mice; details: for number of established tumors that completely regressed: PTD4 n=60, PMIP n=70 tumor sites
# Procedure: FIGS. 4A-4D. […] FIG. 4A) MMTV-pyV mT transgenic mice were injected with FITC-msPMIP (50 μg/g body weight), sacrificed four hours later and various tissues visualized using fluorescence microscopy. FITC-msPMIP localization in the mouse mammary gland tumors is shown (2.5× and 8×). FIG. 4B) Mammary gland tumors (>0.5 cm in diameter) were allowed to develop and mice were injected daily (50 μg/g body weight, 21 day treatment, intraperitoneal (i.p.) injection, 1× per day) with either msPMIP (7 mice) or PTD4 (6 mice). At the end of treatment, animals were sacrificed and proteins lysates made of the tumors for later analysis. […] Numbers above data are number of tumors that meet the size criteria over the total potential tumor sites.
# MMTV-pyV mT mice (33), obtained from Jackson Laboratories) entered into study upon the development of tumors that measured ≧0.5 cm in at least one diameter. Only mice greater than seven weeks of age were included in the study and mice that developed fluid cysts were excluded. Animals were injected i.p. with 50 μg/g body weight of msPMIP or PTD4 once daily for 21 days. Each of ten mammary glands were measured using calipers every two days, and measurements were used to determine tumor volume based on the formula a^2×b/2, with a being the smaller diameter and b being the larger diameter. After treatment for 21 days, mice were sacrificed by CO2 inhalation and tissues resected. Several msPMIP treated mice were injected with FITC-msPMIP (50 μg/g body weight) one or four hours prior to sacrifice and intact tissues were visualized using a fluorescence MZFLIII Leica dissection microscope.
# [3] = system: MDA-MB-231 breast cancer cells implanted into the mammary fat pad of scid mice; assay: Human breast tumor xenograft in mammary fat pad; assay type: in vivo
# Procedure: FIGS. 3A-3E. […] FIG. 3A) MDA-MB-231 cells in Matrigel were injected into the mammary fat pad of scid mice, and daily peptide treatment (50 μg/g body weight of hPMIP or PTD4) began when tumors reached 100 mm^3 (PTD4 and hPMIP n=8) and primary tumor growth was assessed (*, p=0.028). FIG. 3B) After the end of treatment, the amount of time the tumors took to progress to 1000 mm^3 was measured (ANOVA, **, p=0.03). […] FIG. 3D) MDA-MB-231 cells in Matrigel were injected into the mammary fat pad of scid mice, and daily peptide treatment (50 μg/g of hPMIP or PTD4) began when tumors reached 500 mm^3 (PTD4 n=4 and hPMIP n=6) and primary tumor growth was assessed. FIG. 3E) Following 21 days of treatment the tumors were resected immediately and tumor regrowth at the primary site and spread to secondary mammary glands was monitored (PTD4 n=4 and hPMIP n=4). Error bars represent standard error.
# Immunocompromised (severe combined immune deficiency (scid)) mice (Taconic, Rockville, Md.) were tested for the presence of serum IgG and found to be <20 μg/ml IgG. Female mice (four to six weeks old) were injected with 1×10^7 cells embedded in Matri-gel (BD Biosciences) into the mammary fat pad and allowed to grow to either 100 mm^3 or 500 mm^3, based on the formula a^2×b/2 where a is the smaller diameter and b is the larger diameter. Mice were injected i.p. with 50 μg/g body weight of either PMIP or PTD4 control peptide for 21 days and measured with calipers every two days. Either at the end of 21 days, or after the tumor had reached 800 mm^3, tumors were resected by injecting the mice with buprenorphine (2.5 mg/kg body weight, Infusion Solutions, Totowa, N.J.) at least one hour prior to resection and anesthetizing the mice with isoflurane (Abbott, Abbott Park, Ill.). Following surgery, mice were treated with buprenorphine (2.5 mg/kg body weight) 8 and 16 hrs post-surgery. Animals were then followed for 10 days to examine regrowth at the primary tumor site or at secondary mammary glands, then sacrificed.
# [4] = system: MDA-MB-231 cells; assay: Invasion assay (Transwell into Type I collagen); assay type: cell-based, human; details: MDA-MB-231, 50 μM, vs PTD4 or PBS
# Procedure: FIGS. 2A-2C. […] FIG. 2A) BT20 cells were cultured in a 96-well dish (10^4 cells/well) and treated daily for 6 days with either hPMIP (10 μM) or PTD4 (10 μM) in RPMI 1640/1% FBS. An MTT assay was performed to quantify cell number after treatment was complete (***, p<0.0001). Error bars represent standard error. FIG. 2B) MDA-MB-231 and FIG. 2C) BT20 cell lines were treated with either hPMIP (50 μM), PTD4 (50 μM), or PBS overnight, labeled with Calcein AM, allowed to invade through a Transwell (8.0 μM) insert into a Type I collagen gel, and the invaded cells were fluorescently measured. (ANOVA, *p<0.0001, **p<0.0001, #p=0.007, ##p=0.007). Error bars represent standard deviation.
# Collagen matrix (0.9 mg/ml Type I Rat tail collagen (BD Biosciences, Billerica, Mass.), 83.0% (v/v) M-199 medium (Life Technologies), and 0.18% NaHCO3 (Fisher, Hampton, N.H.)) was poured into a 24 well plate. Prior to collagen polymerization a […] pore transwell insert (Corning Inc., Corning, N.Y.) was placed on top of the matrix. The polymerized collagen was rehydrated using a chemoattractant (20% FBS/RPMI 1640 with […] EGF). MDA-MB-231 cells were treated with 50 μM of peptide in serum free RPMI 1640 media for 17 hours. […] The number of fluorescently labeled cells that had invaded into the collagen were measured using a Molecular Devices spectrophotometer (Ex:485, Em:538, and Cutoff:530).
# [5] = system: human breast cancer cell line MDA-MB-231; assay: Annexin V and cell number quantification on plastic; assay type: cell-based; details: MDA-MB-231 grown on plastic
# Text: These cells were chosen as they represent models of high and low MUC1 expression, respectively (data not shown).
# [6] = system: MMTV-pyV mT induced mammary gland tumors; assay: MMTV-pyV mT transgenic mouse spontaneous breast cancer; assay type: in vivo; details: human peptide in MMTV-pyV mT mice
# [7] = system: Muc1; assay: Immunoblot of transgenic tumor lysates for Muc1; assay type: in vivo, MMTV-pyV mT mice; details: MMTV-pyV mT model
# Procedure: (§1) FIGS. 6A-6B. PMIP is associated with reduced Mud 1 expression. FIG. 6A) A representative MMTV-pyV mT msPMIP (P) treated mouse and a PTD4 mouse (C) were each injected 30 minutes prior to sacrifice with epidermal growth factor (1 μg/g body weight) and with peptide. Following sacrifice the tumors were collected and protein lysates were generated. Protein (50 μg) was separated by SDS-PAGE, transferred and immunoblotted for expression of phosphotyrosine (PY99), EGFR (1005), Muc1 (CT2), and β-actin (AC-15). FIG. 6B) Lysates from MDA-MD-231 xenograft tumors (not treated with EGF; described in […]) were similarly analyzed to determine levels of EGFR and MUC1 protein expression. Relative protein levels of Muc1 were measured by densitometry and graphed (Muc1/β-actin, ANOVA, *p=0.014). Molecular weights are shown on the right. IB=immunoblot. White lines through blots indicate same gel and exposure but were non-contiguous.
# (§2) To determine if msPMIP blocked interaction between Muc1 and β-catenin, we began by establishing levels of Muc1 protein expression in the tumor lysates. […] While the mechanism of this loss is unknown, it would certainly result in a loss of Muc1-dependent oncogenic signaling.
# [8] = biological target: T1, EGFR (Mus musculus, UniProt Q01279); assay: Immunoblot of tumor lysates after EGF and peptide injection; assay type: in vivo, MMTV-pyV mT mice; details: EGF and peptide 30 minutes prior to sacrifice, after 21 day treatment
# T1 construct: we generated protein lysates from tumors of MMTV-pyV mT animals injected with EGF and peptide; from tissue; host or cells: mammary gland tumours of MMTV-pyV mT mice
# Procedure: as §1
# To determine if msPMIP was affecting EGF-dependent degradation of EGFR, we generated protein lysates from tumors of MMTV-pyV mT animals injected with EGF and peptide 30 minutes prior to animal sacrifice (after a standard 21 day drug treatment).
# [9] = system: MUC1; assay: Immunoblot of xenograft tumor lysates for MUC1; assay type: in vivo, scid mice (MDA-MB-231 xenograft); details: MDA-MB-231 xenograft model
# Procedure: as §1, §2
substance,measurement,setting,value
"FITC-hPMIP: FITC-labeled PTD4 conjugated to MIP peptides (human) (YARAAARQARAPYEKVSAGNGGSSLS; not fully specified (N-terminus); also: FITC label, place not given here)",presence and retention of fluorescent peptide in cells,[1],found to contain the fluorescent peptide and it was retained over time
"PTD4: PTD4 protein transduction domain, SEQ ID NO: 16, used as control peptide (YARAAARQARA; synthetic protein translocation domain)","number of tumors sized 100-300 mm^3, end vs beginning of treatment","[2]; 50 μg/g i.p. daily, 21 days",doubled
same,tumor growth rate,"[2]; 50 μg/g i.p. daily, 21 days",69 mm^3/day
same,tumors larger than 100 mm^3 (of possible tumor sites),"[2]; 50 μg/g i.p. daily, 21 days",47%
same,tumors that grew larger than 500 mm^3 by the end of the study,"[2]; 50 μg/g i.p. daily, 21 days",13%
same,total tumor growth for all tumor sites,"[2]; 50 μg/g i.p. once daily, over 21 days of treatment",589.5%±283.6% and ~590%
same,number of established tumors that completely regressed,[2]; 21 day treatment,none
same,average tumor volume of regrowth / secondary mammary gland tumors after resection,"[3]; treatment begun at 500 mm^3, 50 μg/g i.p. 21 days, resection, 10 days follow-up without drug",760 mm^3
"hPMIP: human PMIP, SEQ ID NO: 17: MUC1 mimetic 15 amino acid peptide in tandem with PTD4 protein transduction domain (YARAAARQARAPYEKVSAGNGGSSLS; fusion protein)",invasion into Type I collagen matrix,[4],strongly inhibited cellular invasion
same,effect on apoptosis (Annexin V),[5],no detectable effects
same,effect on cell growth (cell number),[5],no detectable effects
same,effect on tumor growth,[6],no effect on tumor growth
same,primary tumor size vs control,"[3]; treatment begun at 100 mm^3, 50 μg/g i.p. 21 days, p=0.028",significant decrease in tumor size
same,length of time to reach resection size of 800 mm^3,"[3]; treatment begun at 100 mm^3, after end of treatment, p=0.03",significant increase in the length of time
same,tumor regrowth and spread 10 days after resection,"[3]; treatment begun at 100 mm^3, resection at 800 mm^3",substantially decreased
same,number of regrowth and secondary mammary gland tumors,"[3]; treatment begun at 500 mm^3, after resection",found in equal number for both treatment groups
"msPMIP: mouse PMIP, SEQ ID NO: 18: mouse Muc1 mimetic peptide in tandem with PTD4 protein transduction domain (YARAAARQARAPYEEVSAGNGSSSLS; fusion protein)",Muc1 protein expression in tumor lysates,[7],induced a loss of Muc1 protein expression
same,expression of EGFR in tumor lysates,[8],striking reduction
same,phosphotyrosine in tumor lysates,[8],striking reduction
same,"number of tumors sized 100-300 mm^3, end vs beginning of treatment","[2]; 50 μg/g i.p. daily, 21 days",remained the same
same,tumors larger than 100 mm^3 (of possible tumor sites),"[2]; 50 μg/g i.p. daily, 21 days",27%
same,tumors that grew larger than 500 mm^3 by the end of the study,"[2]; 50 μg/g i.p. daily, 21 days",1%
same,number of established tumors that completely regressed,[2]; 21 day treatment,four
same,tumor initiation (percent of tumor transitions from 0 mm^3 to 100 mm^3),"[2]; during drug treatment, p=0.0045",significant decrease
same,frank tumors remaining after treatment,"[2]; one representative mouse, 21 day treatment",no frank tumors remaining
same,Muc1 protein expression in tumor lysates,[9],induced a loss of Muc1 protein expression
